Results on three compounds are retold here after US20130102645A1, “Methods and compositions for controlling vascularization in ophthalmological and dermatological diseases” (AVIENNE PHARMACEUTICALS GMBH, priority 2011, published 2013).

Converted amounts (≈) assume the structure as drawn. “Also recorded” adds a separate entry of the source. Like-named read-outs stand apart in the source and are kept apart here.

The test system of data set [1] is endothelial cells. The conditions noted are these: read-out: IC50, colony-forming ability of endothelial cells; cited from earlier work.
The subject of data set [2] is endothelial cell lines. Description: proliferation assay of primary endothelial cells, direct cell counting. The class given is cell-based, human. The procedure: Primary endothelial cell lines (HMVEC-dLyAd—human dermal lymphatic microvascular endothelial cells (EC), dermal blood microvascular EC, HMVEC-LB lung blood microvascular EC, HMVEC-C cardiac human microvascular endothelial cells and MVEC-d—dermal microvascular EC) are from Cambrex Bio Science (Cambrex Bio Science Walkersville Inc., Walkersville, Md., USA). Cell lines are cultured according to the manufacturer's recommendations.
For proliferation assays, cells are seeded in 24- to 96-well plates in medium at different concentrations according to the cell type. After 24 hours, the medium is removed and replaced with fresh medium containing increasing concentrations of the compounds. The plates are then incubated for additional 24 to 72 hours, depending on the type of the experiment. Cells are then trypsinized and collected for direct counting. Results are plotted and expressed as means (±SE) for each compound and for a given concentration.

Data set [3] concerns HUVEC. Description: growth inhibition of HUVEC cell lines. The class given is cell-based. The following applies: Homo sapiens, read-out: IC50 for growth inhibition of HUVECs. Here is the method:
For proliferation assays, cells are seeded in 24- to 96-well plates in medium at different concentrations according to the cell type. […] Cells are then trypsinized and collected for direct counting. Results are plotted and expressed as means (±SE) for each compound and for a given concentration.
In Table 2, the group “R” is defined as follows: […]

For data set [4], the system named is SAOS-2, Hela, HT29, U87MG and SK-N-DZ cells. In words: cytotoxic activity in cancer cell lines by cell numbers. The class given is cell-based. The conditions noted are these: up to 20 μM; uncoated dishes or coated with vitronectin or fibrinogen. The procedure: For example, cytotoxic activity of AV-398 was determined in several cancer cell lines (SAOS-2, Hela, HT29, U87MG and SK-N-DZ cells) by assessing cell numbers after treating cell lines with varying concentration of up to 20 μM. Experiments were performed either on uncoated dishes, or on dishes coated with vitronectin or fibrinogen. In addition, tumor cell lines were treated in parallel with echistatin (Gan Z R et al (1998)). […] Similar data were recently published showing cytotoxic activity also only against MDA-MB-435 breast cancer cells (Dayam R et al, 2006).

Data set [5] concerns MDA-MB-435. In words: cytotoxic activity in breast cancer cell line. The format is cell-based. The following applies: up to 20 μM.
The test system of data set [6] is ocular angiogenesis. In words: conjunctival incision angiogenesis model in pigs, eye drops. The class given is in vivo, pig. From the text:
AV-398 inhibits ocular angiogenesis in vivo in a widely accepted large animal model. The cornea is an ideal model system for angiogenesis in general, and more specifically for angiogenesis of the eye. The corneal angiogenesis assay is one of the most widely used in vivo assay for the evaluation of factors influencing angiogenesis (Auerbach R, 2003, Thiele W, 2006). One reason that makes the cornea an ideal object for observing neovascularization is its normal lack of vascularity, maintained by different molecular mechanisms. New vessels can easily be identified by visual inspection alone and quantified with the help of computerized image analysis programs. The effect of an ophthalmological formulation of AV-398 after a conjunctival insult with subsequent angiogenesis in a large animal model was investigated in order to test whether the in vitro data, such as anti-proliferative effects on human endothelial cells, could be reproduced in vivo.
Six white pigs weighing 10 to 15 kg were included. First, corneae and conjunctivae were anaesthesized by local application of lidocaine 4%. Then, an incision of 0.5 cm length through the conjunctival tunica sclerae to the substantia propria was placed in parallel to the dorsal corneal limbus at a distance of approximately 2 mm. The animals were treated as follows. The right eye of each animal was treated with a commercially available ocular eye drop solution (PROTAGENT® EYE DROPS 2%) containing 100 μg/ml of AV-398. The corresponding left eyes of each animal were control-treated with the same eye drop solution alone. Two droplets (˜100 μl) of AV-398 were applied in the right eye immediately after setting of the incision and two droplets of the ophthalmologic carrier formula as negative control in the left eye of the same animal. Animals received AV-398 as well as the eye drops 0.5 hrs post incision and the same treatment at 3 hrs post incision.

Data set [7] relates to chorioallantoic membrane (CAM) of the developing chicken embryo. In words: chicken egg chorioallantoic membrane (CAM) assay. The format is in vivo. The following applies: applied on CAM day 6 p.f., incubated until day 11 p.f. The text has this:
Local application of AV-398 inhibits in vivo angiogenesis as evidenced by the chicken egg chorioallantoic membrane model. The chorioallantoic membrane (CAM) of the developing chicken embryo serves as an alternative to the traditional mammalian in vivo models, and further corroborates the findings in pigs described above and has clear relevance for the treatment e.g. dermatological indications linked to neoangiogenesis. AV-398 was applied over 5 days.
Eggs were opened on day 6 post fertilization (p.f.). Substances (200 μl respectively) were applied on the CAM on day 6 p.f. and incubated until day 11 p.f. As a vehicle control, 1% DMSO in PBS (phosphate-buffered saline solution pH 7.4) without AV-398 was used. Eggs were inspected daily by stereo-microscopy and pictures were taken (6× magnification).

Data set [8] in a line: rat pharmacokinetics, plasma LC-MS/MS. The class given is in vivo. The conditions noted are these: for half-life: iv, 5 mg/kg. The procedure:
(§1) Preliminary pharmacokinetic and preliminary toxicology information was obtained following a single intravenous dose of 5 mg/kg and a single 20 mg/kg PO dose to male Sprague-Dawley rats for 5 separate test articles. AV-398 was dosed both via the IV and PO routes. Blood was collected from the animals in Groups 1 through 10 for pharmacokinetic analysis. Approximately 0.25 mL of blood was collected in potassium EDTA tubes via the jugular cannulae for all time points. For all IV treated animals, blood was collected at 9 time points (0.083, 0.25, 0.5, 1, 2, 4, 6, 8 and 12 hour post-dose) via the jugular cannulae. For all animals treated by oral gavage, blood was collected at 7 time points (0.5, 1, 2, 4, 6, 8 and 12 hour post-dose) via the jugular cannulae. At the final time point additional blood volume was collected in a separate EDTA tube from each animal for clinical pathology evaluation (including serum chemistry and hematology). Predose samples were collected from the extra animals which were not assigned to any of the dose groups. The plasma samples were analyzed by LC-MS/MS to determine the plasma concentrations of drug candidates. Pharmacokinetic analysis of the plasma concentration data was conducted using non-compartmental analysis with WinNonlin Version 4.1. […] The oral absorption of AV-398 when administered at 20 mg/kg dose as a suspension was low at an average of 8.4%.

Data set [9] is described as follows: rat clinical pathology (serum chemistry and hematology). The format is in vivo. The conditions noted are these: rats, single 5 mg/kg IV or 20 mg/kg PO. Here is the method: as §1
The nature of data set [10]: solubility. The class given is physicochemical. The procedure:
Sufficiently concentrated solutions are readily achievable. AV-398 is soluble in PBS 7.4 at 100 μg/ml, in Tris.Cl buffer at 1 mg/ml, and as a sodium salt at least up to 20 mg/ml.

Data set [11] concerns the target αvβ3-receptor (Homo sapiens, UniProt P05106+P06756). The following applies: cited from earlier work.

Sequence of αvβ3-receptor (P06756 31-889 limits assumed): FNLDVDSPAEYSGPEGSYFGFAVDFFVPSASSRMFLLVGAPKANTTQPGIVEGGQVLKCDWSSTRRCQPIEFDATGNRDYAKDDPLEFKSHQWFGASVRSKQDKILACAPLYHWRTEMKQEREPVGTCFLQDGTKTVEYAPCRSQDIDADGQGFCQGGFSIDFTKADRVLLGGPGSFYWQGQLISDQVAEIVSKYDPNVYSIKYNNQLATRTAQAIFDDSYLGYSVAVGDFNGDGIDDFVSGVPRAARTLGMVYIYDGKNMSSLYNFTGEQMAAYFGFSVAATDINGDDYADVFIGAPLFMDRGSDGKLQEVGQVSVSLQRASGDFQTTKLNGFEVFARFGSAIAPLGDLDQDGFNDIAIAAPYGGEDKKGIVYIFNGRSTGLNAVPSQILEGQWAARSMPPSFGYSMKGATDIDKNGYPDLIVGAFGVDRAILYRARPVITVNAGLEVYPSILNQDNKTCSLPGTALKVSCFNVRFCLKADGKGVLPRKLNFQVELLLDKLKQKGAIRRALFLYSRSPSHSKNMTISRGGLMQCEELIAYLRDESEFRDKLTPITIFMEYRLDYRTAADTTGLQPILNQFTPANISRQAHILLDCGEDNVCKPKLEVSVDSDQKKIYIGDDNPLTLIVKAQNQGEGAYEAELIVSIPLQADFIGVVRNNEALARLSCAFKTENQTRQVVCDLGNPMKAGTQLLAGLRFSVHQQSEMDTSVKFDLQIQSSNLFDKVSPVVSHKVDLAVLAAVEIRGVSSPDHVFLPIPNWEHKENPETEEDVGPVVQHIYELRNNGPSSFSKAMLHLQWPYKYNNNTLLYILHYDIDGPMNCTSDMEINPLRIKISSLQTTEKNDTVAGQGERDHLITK
Sequence of αvβ3-receptor (P06756 891-1048 partner limits assumed): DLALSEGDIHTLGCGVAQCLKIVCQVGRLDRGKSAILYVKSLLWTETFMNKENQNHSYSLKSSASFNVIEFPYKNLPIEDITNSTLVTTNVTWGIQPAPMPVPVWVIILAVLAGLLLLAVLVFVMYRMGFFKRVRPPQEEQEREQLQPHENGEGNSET
Sequence of αvβ3-receptor (P05106 27-788): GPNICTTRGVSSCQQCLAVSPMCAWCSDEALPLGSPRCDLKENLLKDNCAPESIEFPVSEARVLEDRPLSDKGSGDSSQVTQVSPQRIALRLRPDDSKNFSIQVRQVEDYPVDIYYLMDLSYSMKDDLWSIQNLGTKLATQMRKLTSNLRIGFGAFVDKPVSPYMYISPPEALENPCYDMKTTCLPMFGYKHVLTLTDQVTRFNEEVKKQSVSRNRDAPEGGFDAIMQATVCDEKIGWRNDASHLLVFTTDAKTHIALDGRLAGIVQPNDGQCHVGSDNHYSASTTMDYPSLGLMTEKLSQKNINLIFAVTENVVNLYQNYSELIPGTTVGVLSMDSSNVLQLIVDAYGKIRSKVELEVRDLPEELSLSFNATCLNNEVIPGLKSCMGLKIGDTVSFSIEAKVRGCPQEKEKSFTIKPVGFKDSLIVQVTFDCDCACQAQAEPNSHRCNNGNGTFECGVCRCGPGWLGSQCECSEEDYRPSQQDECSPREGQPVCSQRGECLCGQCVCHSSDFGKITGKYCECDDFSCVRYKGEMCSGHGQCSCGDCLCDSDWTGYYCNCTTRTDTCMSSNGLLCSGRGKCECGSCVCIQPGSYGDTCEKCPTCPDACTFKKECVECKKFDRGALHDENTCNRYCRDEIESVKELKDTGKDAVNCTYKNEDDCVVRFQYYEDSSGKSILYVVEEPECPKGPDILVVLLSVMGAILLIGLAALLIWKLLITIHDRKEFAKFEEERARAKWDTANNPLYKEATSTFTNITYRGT

Take `CC(C)[C@H]1C(=O)N[C@@H](CCCN=C(N)N)C(=O)NCC(=O)N[C@@H](CC(=O)O)C(=O)N[C@H](Cc2ccccc2)C(=O)N1C` [Cilengitide, cycloL-Arg-Gly-L-Asp-D-Phe-N [Me] L-Val]: the IC50 in [1] is 6.7 ± 1.2 µM.
Broadly, the AUC(0-inf) is total exposure, with the tail of the curve extrapolated. Higher therefore signals high exposure. One may read the half-life as the time needed for the level to fall by half in the phase considered. As usually defined, the solubility is the dissolved amount per volume that the medium holds. For the compound `CCOc1cc(C=C2S/C(=N/c3ccc(C(=O)O)cc3)N(C)C2=O)ccc1O` (stereo in doubt) [AV-398, 4-({5-[(E)-1-(3-ethoxy-4-hydroxyphenyl)methylidene]-3-methyl-4-oxo-1,3-thiazolan-2-yliden}amino)benzoic acid], the IC50 is 0.4 µM in [2] (Homo sapiens, Endothelial cell, endothelial cells (lung, lymphatics, umbilical), FIGS. 1-3, read-out: Half-maximal growth inhibition); 0.2 to 0.5 µM in data set [2] (Homo sapiens, endothelial cell lines, read-out: 50% inhibitory concentration); under 0.3 µM in data set [3]. Moreover, the “effects on cancer cell lines (cytotoxic activity)” value in [4] is “no meaningful effects”. Moreover, the “activity against breast cancer cell line MDA-MB-435” value in [5] is listed as “limited activity”. Besides, the “neoangiogenesis on conjunctivae vs control-treated eyes” value in data set [6] (eye drops 100 μg/ml, right eye, left eye vehicle) is reported as “diminished neoangiogenesis”. Besides, in data set [6] (immediately after treatment), the “bleeding surrounding the incision” value is reported as “marked diffuse bleeding”. For the same compound, the “local or systemic adverse side effects” value in data set [6] (three weeks post incision) is reported as “no local or systemic adverse side effects”. For the same compound, in [7], the “vascularization of CAM / chicken embryo vs vehicle control” value was “markedly decreased vascularization; also recorded: significant reduction of vascularization”. The “oral absorption (average)” value in data set [8] (20 mg/kg as a suspension) is listed as 8.4%. Besides, the “peak plasma concentration (average)” value in data set [8] (IV 5 mg/kg) came out at 1736.56 ng/mL. Moreover, the “time of peak plasma concentration” value in data set [8] (IV 5 mg/kg) is 0.083 h. The “peak plasma concentration (mean)” value in [8] (PO 20 mg/kg suspension) was 54.07 ng/mL. The same compound displayed an AUC(0-inf) in data set [8] (male, Sprague-Dawley, plasma, IV 5 mg/kg) of 0.69 µg·h/mL. The AUC(0-t) in data set [8] (male, Sprague-Dawley, plasma, PO 20 mg/kg suspension, read-out: average AUC (0-12 hr)) was determined as 0.234 µg·h/mL. Also, the half-life in data set [8] (male, Sprague-Dawley, plasma, IV 5 mg/kg, read-out: Terminal plasma half-life (converted)) was 30 min; in data set [8] (male, Sprague-Dawley, plasma, IV 5 mg/kg, read-out: terminal plasma half-life (range)), 10.8 to 40.8 min; in data set [8] (male, Sprague-Dawley, plasma, after intravenous administration, read-out: terminal plasma half-life (converted)) it was 30 min. For the same compound, in [9], the “effects on hematological and serum chemistry parameters” value is listed as “no side-related effects”. Also, the solubility is 1 mg/mL (≈ 2510 µM) in data set [10] (Tris.Cl buffer, aqueous buffer); at least 20 mg/mL in data set [10] (as a sodium salt); 0.1 mg/mL (≈ 251 µM) in data set [10] (pH 7.4, aqueous buffer, PBS 7.4). For the same compound, the αυβ3 binding affinity in [11] was 240 nM.
On to echistatin [reference compound], for which, in data set [2] (endothelial cells (lung, lymphatics, umbilical), FIGS. 1-3, read-out: Half-maximal growth inhibition), the IC50 worked out at 0.8 µM.
